Where a name gives a salt, the structure may show the parent alone.
Experiments:
[1] = target: T1, recombinant human α1D receptor (Homo sapiens, UniProt P25100); test: Adrenergic α1D selectivity binding assay ([3H]-prazosin); conditions: inhibition of [3H]-prazosin binding, HEK293 membranes, read-out: α1 bind pIC50 (converted)
T1 construct: expressed in transfected cells; host or cells: HEK293
T1 sequence (P25100 1-572): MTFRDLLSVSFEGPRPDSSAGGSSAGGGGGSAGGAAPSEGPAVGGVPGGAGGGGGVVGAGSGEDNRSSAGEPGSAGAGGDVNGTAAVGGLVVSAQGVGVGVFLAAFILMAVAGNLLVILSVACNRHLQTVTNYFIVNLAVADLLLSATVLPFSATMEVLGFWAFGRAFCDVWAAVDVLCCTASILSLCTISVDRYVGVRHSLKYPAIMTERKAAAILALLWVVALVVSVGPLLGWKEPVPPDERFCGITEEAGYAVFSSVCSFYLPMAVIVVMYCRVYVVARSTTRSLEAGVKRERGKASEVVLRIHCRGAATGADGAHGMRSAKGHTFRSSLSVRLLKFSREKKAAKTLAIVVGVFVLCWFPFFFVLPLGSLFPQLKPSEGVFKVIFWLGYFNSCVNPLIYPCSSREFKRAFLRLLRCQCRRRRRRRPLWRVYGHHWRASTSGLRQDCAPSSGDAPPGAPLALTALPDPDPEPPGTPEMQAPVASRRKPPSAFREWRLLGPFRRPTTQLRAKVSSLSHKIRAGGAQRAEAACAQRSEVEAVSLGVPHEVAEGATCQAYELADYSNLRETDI
Method: Membranes were prepared from human embryonic kidney 293 (HEK293) cells expressing recombinant human α1D receptor. These were diluted in Assay Buffer (50 mM HEPES, 1 mM EDTA, pH 7.4) to provide a final concentration of membranes that gave a clear window between maximum and minimum specific binding.
(§1) Assays were performed in U-bottomed 96-well polypropylene plates. 10 μl [^3H]-prazosin (0.3 nM final concentration) and 10 μl of test compound (10× final concentration) were added to each test well. For each assay plate 8 replicates were obtained for [^3H]-prazosin binding in the presence of 10 μl vehicle (10% (v/v) DMSO in Assay Buffer; defining maximum binding) or 10 μL BMY7378 (10 μM final concentration; defining non-specific binding (NSB)). Membranes were then added to achieve a final volume of 100 μL. The plates were incubated for 2 h at room temperature and then filtered onto PEI coated GF/B filter plates, pre-soaked for 1 h in Assay Buffer, using a 96-well plate Tomtec cell harvester. Five washes with 250 μl wash buffer (50 mM HEPES, 1 mM EDTA, pH 7.4) were performed at 4° C. to remove unbound radioactivity. The plates were dried then sealed from underneath using Packard plate sealers and MicroScint-O (50 μl) was added to each well. The plates were sealed (TopSeal A) and filter-bound radioactivity was measured with a scintillation counter (TopCount, Packard BioScience) using a 3-minute counting protocol.
(§2) Total specific binding (B0) was determined by subtracting the mean NSB from the mean maximum binding. NSB values were also subtracted from values from all other wells. […] Data was fitted to a four parameter logistic equation to determine the compound potency, which was expressed as pIC50 (negative log molar concentration inducing 50% inhibition of [^3H]-prazosin binding).

Adrenergic β2 = target: T2, Adrenergic β2 (Homo sapiens, UniProt P07550); test: Adrenergic β2 mediated cAMP production in H292 cells (AlphaScreen cAMP detection); assay type: cell-based; conditions: for β2 Int Act: Intrinsic Activity, fraction relative to the maximum activity determined for formoterol; for EC50: cAMP production, 60 min at room temperature, 300 μM rolipram, read-out: β2 pEC50 (converted)
T2 construct: Adherent H292 cells were removed from tissue culture flasks; endogenous in cells; host or cells: H292 cells
Method: H292 cells were grown in 225 cm2 flasks incubator at 37° C., 5% CO2 in RPMI medium containing, 10% (v/v) FBS (foetal bovine serum) and 2 mM L-glutamine.
Adherent H292 cells were removed from tissue culture flasks by treatment with Accutase™ cell detachment solution for 15 min. Flasks were incubated for 15 min in a humidified incubator at 37° C., 5% CO2. Detached cells were re-suspended in RPMI media (containing 10% (v/v) FBS and 2 mM L-glutamine) at […]. 10000 cells in 100 μl were added to each well of a tissue-culture-treated 96-well plate and the cells incubated overnight in a humidified incubator at 37° C., 5% CO2. The culture media was removed and cells were washed twice with 100 μl assay buffer and replaced with 50 μL assay buffer (HBSS solution containing 10 mM HEPES pH7.4 and 5 mM glucose). Cells were rested at room temperature for 20 min after which time 25 μl of rolipram (1.2 mM made up in assay buffer containing 2.4% (v/v) dimethylsulphoxide) was added. Cells were incubated with rolipram for 10 min after which time test compounds were added and the cells were incubated for 60 min at room temperature. The final rolipram concentration in the assay was 300 μM and final vehicle concentration was 1.6% (v/v) dimethylsulphoxide. The reaction was stopped by removing supernatants, washing once with 100 μL assay buffer and replacing with 50 μL lysis buffer. The cell monolayer was frozen at −80° C. for 30 min (or overnight).
AlphaScreen™ cAMP Detection
The concentration of cAMP (cyclic adenosine monophosphate) in the cell lysate was determined using AlphaScreen™ methodology. The frozen cell plate was thawed for 20 min on a plate shaker then 10 μl of the cell lysate was transferred to a 96-well white plate. 40 μL of mixed AlphaScreen™ detection beads pre-incubated with biotinylated cAMP, was added to each well and the plate incubated at room temperature for 10 h in the dark. The AlphaScreen™ signal was measured using an EnVision spectrophotometer (Perkin-Elmer Inc.) with the recommended manufacturer's settings. cAMP concentrations were determined by reference to a calibration curve determined in the same experiment using standard cAMP concentrations. Concentration response curves for agonists were constructed and data was fitted to a four parameter logistic equation to determine both the pEC50 and Intrinsic Activity. Intrinsic Activity was expressed as a fraction relative to the maximum activity determined for formoterol in each experiment.

[2] = target: T3, recombinant human adrenergic beta 1 receptors (Homo sapiens, UniProt P08588); test: Adrenergic β1 selectivity binding assay ([125I]-Iodocyanopindolol); conditions: inhibition of [125I]-Iodocyanopindolol binding, human β1 membranes; read-out: β1 bind p IC50 (converted)
T3 construct: purchased Euroscreen
Method: (§3) Membranes containing recombinant human adrenergic beta 1 receptors were obtained from Euroscreen. These were diluted in Assay Buffer (50 mM HEPES, 1 mM EDTA, 120 mM NaCl, 0.1% gelatin, pH 7.4) to provide a final concentration of membranes that gave a clear window between maximum and minimum specific binding.
as §1, with “plates. 10 μL [^125I]-Iodocyanopindolol (0.036 nM final” for “plates. 10 μl [^3H]-prazosin (0.3 nM final”, “and 10 μL of test” for “and 10 μl of test”, “obtained for [^125I]-Iodocyanopindolol binding in” for “obtained for [^3H]-prazosin binding in”, “or 10 μl Propranolol (10 μM” for “or 10 μL BMY7378 (10 μM”, “with 250 μL wash buffer” for “with 250 μl wash buffer”, “mM EDTA, 120 mM NaCl, pH 7.4)” for “mM EDTA, pH 7.4)”
as §2, with “[^125I]-Iodocyanopindolol” for “[^3H]-prazosin”

[3] = target: T4, recombinant human Dopamine Subtype D2s receptors (Homo sapiens, UniProt P14416); test: Dopamine D2 selectivity binding assay ([3H]-spiperone); conditions: inhibition of [3H]-spiperone binding, human D2s membranes; read-out: D2 bind pIC50 (converted)
T4 construct: purchased Perkin Elmer
Method: as §3, with “Dopamine Subtype D2s” for “adrenergic beta 1”, “Perkin Elmer.” for “Euroscreen.”
Assays were performed in U-bottomed 96-well polypropylene plates. 30 μL [^3H]-spiperone (0.16 nM final concentration) and 30 μl of test compound (10× final concentration) were added to each test well. For each assay plate 8 replicates were obtained for [^3H]-spiperone binding in the presence of 30 μL vehicle (10% (v/v) DMSO in Assay Buffer; defining maximum binding) or 30 μl Haloperidol (10 μM final concentration; defining non-specific binding (NSB)). Membranes were then added to achieve a final volume of 300 μL. The plates were incubated for 2 h at room temperature and then filtered onto PEI coated GF/B filter plates, pre-soaked for 1 h in Assay Buffer, using a 96-well plate Tomtec cell harvester. Five washes with 250 μl wash buffer (50 mM HEPES, 1 mM EDTA, 120 mM NaCl, pH 7.4) were performed at 4° C. to remove unbound radioactivity. The plates were dried then sealed from underneath using Packard plate sealers and MicroScint-O (50 μl) was added to each well. The plates were sealed (TopSeal A) and filter-bound radioactivity was measured with a scintillation counter (TopCount, Packard BioScience) using a 3-minute counting protocol.
as §2, with “[^3H]-spiperone” for “[^3H]-prazosin”

T2 sequence (P07550 whole entry): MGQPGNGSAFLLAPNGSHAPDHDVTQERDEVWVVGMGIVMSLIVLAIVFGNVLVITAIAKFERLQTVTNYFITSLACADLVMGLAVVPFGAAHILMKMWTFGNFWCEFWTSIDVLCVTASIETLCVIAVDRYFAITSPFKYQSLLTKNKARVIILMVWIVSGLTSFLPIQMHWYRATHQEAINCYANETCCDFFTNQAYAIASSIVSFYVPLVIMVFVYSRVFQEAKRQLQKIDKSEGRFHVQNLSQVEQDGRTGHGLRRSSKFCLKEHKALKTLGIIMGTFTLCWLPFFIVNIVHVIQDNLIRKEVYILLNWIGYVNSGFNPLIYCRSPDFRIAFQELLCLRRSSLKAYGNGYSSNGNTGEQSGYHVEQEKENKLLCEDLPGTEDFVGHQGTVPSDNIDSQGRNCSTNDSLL
T3 sequence (P08588 whole entry): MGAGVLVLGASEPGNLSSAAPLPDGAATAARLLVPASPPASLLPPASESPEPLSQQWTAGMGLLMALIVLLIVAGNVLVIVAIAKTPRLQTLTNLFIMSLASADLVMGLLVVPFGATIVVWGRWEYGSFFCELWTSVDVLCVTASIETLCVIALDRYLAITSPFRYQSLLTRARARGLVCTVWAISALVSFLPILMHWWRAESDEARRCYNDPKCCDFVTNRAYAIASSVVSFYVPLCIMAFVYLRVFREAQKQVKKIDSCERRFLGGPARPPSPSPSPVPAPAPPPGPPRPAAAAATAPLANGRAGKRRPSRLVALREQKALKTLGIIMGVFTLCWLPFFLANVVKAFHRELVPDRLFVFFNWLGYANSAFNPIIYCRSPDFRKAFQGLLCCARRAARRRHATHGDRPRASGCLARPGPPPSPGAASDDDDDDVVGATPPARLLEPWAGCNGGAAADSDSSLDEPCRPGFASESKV
T4 sequence (P14416 1-414 isoform P14416-2): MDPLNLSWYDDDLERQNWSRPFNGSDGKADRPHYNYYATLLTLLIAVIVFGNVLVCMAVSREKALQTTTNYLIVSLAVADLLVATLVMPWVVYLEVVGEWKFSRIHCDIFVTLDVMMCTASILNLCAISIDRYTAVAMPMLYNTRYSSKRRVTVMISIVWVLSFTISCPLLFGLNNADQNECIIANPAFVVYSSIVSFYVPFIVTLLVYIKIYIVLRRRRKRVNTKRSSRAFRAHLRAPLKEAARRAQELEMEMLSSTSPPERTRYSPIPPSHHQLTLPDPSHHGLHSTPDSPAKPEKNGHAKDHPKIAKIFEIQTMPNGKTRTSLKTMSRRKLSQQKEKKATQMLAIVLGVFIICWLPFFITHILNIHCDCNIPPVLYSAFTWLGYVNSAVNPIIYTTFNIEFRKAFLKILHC

Q: Which results are given for `Cn1cc(-c2cccc(CCOCCC(=O)N(CCNCCc3ccc(O)c4c3OCC(=O)N4)C3CCCCC3)c2)cn1` [01 and 02]?
A: IC50 [1]: 1000 nM; β2 Int Act (Adrenergic β2): 0.96; EC50 (Adrenergic β2): 6.31 nM; IC50 [2]: > 7940 nM

Q: How did the IC50 [1] turn out when `Cn1cc(-c2cccc(CCOCCC(=O)N(CCNCCc3ccc(O)c4c3OCC(=O)N4)C3CCCCCC3)c2)nn1` [Example 06, N-Cycloheptyl-N-(2-(2-(5-hydroxy-3-oxo-3,4-dihydro-2H-benzo[b][1,4]oxazin-8-yl)ethylamino)ethyl)-3-(3-(1-methyl-1H-1,2,3-triazol-4-yl)phenethoxy)propanamide Trifluoroacetic Acid Salt] was run?
A: The IC50 was 1580 nM.

Q: What about the IC50 [3] of the same molecule?
A: Its IC50 is 2000 nM.

Q: And the “β2 Int Act” value (Adrenergic β2)?
A: The value was 0.95.

Q: And the EC50 (Adrenergic β2)?
A: Its EC50 is 12.6 nM.

Q: `O=C1COc2c(CCNCCN(C(=O)CCOCCc3cccc(-c4ncon4)c3)C3CCCCC3)ccc(O)c2N1` [Example 11, 3-(3-(1,2,4-Oxadiazol-3-yl)phenethoxy)-N-cyclohexyl-N-(2-(2-(5-hydroxy-3-oxo-3,4-dihydro-2H-benzo[b][1,4]oxazin-8-yl)ethylamino)ethyl)propanamide Trifluoroacetic Acid Salt] was tested. Which IC50 [1] did it give?
A: Its IC50 is 631 nM.

Q: What about the IC50 [3] of the same molecule?
A: The IC50 was 3980 nM.

Q: And the “β2 Int Act” value (Adrenergic β2)?
A: The value was 0.85.

Q: And the EC50 (Adrenergic β2)?
A: Its EC50 is 10 nM.

Q: With `CCCn1cc(-c2cccc(CCOCCC(=O)N(CCNCCc3ccc(O)c4c3OCC(=O)N4)C3CCCC3)c2)cn1` [Example 18, N-Cyclopentyl-N-(2-(2-(5-hydroxy-3-oxo-3,4-dihydro-2H -benzo[b][1,4]oxazin-8-yl)ethylamino)ethyl)-3-(3-(1-propyl-1H -pyrazol-4-yl)phenethoxy)propanamide Trifluoroacetic Acid Salt] as the molecule, how does the IC50 [1] read?
A: Its IC50 is 1000 nM.

Q: What about the “β2 Int Act” value (Adrenergic β2) of the same molecule?
A: The value was 0.97.

Q: And the EC50 (Adrenergic β2)?
A: The EC50 was 10 nM.

Q: What about the IC50 [2] of the same molecule?
A: The IC50 was greater than 7940 nM.

Q: What does the source list for `CC(C)[C@@H](C)N(CCNCCc1ccc(O)c2c1OCC(=O)N2)C(=O)CCOCCc1cccc(-c2cnn(C(C)C)c2)c1` [Example 20, (R)—N-(2-(2-(5-Hydroxy-3-oxo-3,4-dihydro-2H-benzo[b][1,4]oxazin-8-yl)ethylamino)ethyl)-3-(3-(1-isopropyl-1H-pyrazol-4-yl)phenethoxy)-N-(3-methylbutan-2-yl)propanamide Trifluoroacetic Acid Salt]?
A: IC50 [1]: 501 nM; β2 Int Act (Adrenergic β2): 1.00; EC50 (Adrenergic β2): 10 nM; IC50 [2]: > 10000 nM

Q: With `CCn1cc(-c2cccc(CCOCCC(=O)N(CCNCCc3ccc(O)c4c3OCC(=O)N4)[C@H](C)C(C)C)c2)cn1` [Example 23, (R)-3-(3-(1-Ethyl-1H-pyrazol-4-yl)phenethoxy)-N-(2-(2-(5-hydroxy-3-oxo-3,4-dihydro-2H-benzo[b][1,4]oxazin-8-yl)ethylamino)ethyl)-N-(3-methylbutan-2-yl)propanamide Trifluoroacetic Acid Salt] as the molecule, how does the IC50 [1] read?
A: The IC50 was 794 nM.

Q: And the “β2 Int Act” value (Adrenergic β2)?
A: Its value is 0.98.

Q: And the EC50 (Adrenergic β2)?
A: Its EC50 is 6.31 nM.

Q: And the IC50 [2]?
A: The IC50 was greater than 10000 nM.
